Laboratory results from patent US12084437B2, “Halo-substituted piperidines as orexin receptor modulators” (AstraZeneca AB, priority 2016, dated 2024).

Assay: Metabolic stability and intrinsic clearance in rat hepatocytes
Format: in vitro ADME
Conditions: cryopreserved rat hepatocytes (suspension), 1 uM compound, 37 C, read-out: rHeps CLint
Procedure: Stock solutions of compounds and control compounds were prepared in 10 mM in appropriate solvent, such as DMSO. L-15 medium was placed in a 37° C. water bath and allowed to warm for at least 15 minutes prior to use. A quenching plate was prepared by adding 80 μL of acetonitrile to each well of a 96-well plate. In a new 96-well plate, the 10 mM stock solution of test compounds and control compounds were diluted to 100 μM by combining 198 μL of acetonitrile and 2 μL of the 10 mM stock. A vial of cryopreserved rat hepatocytes were removed from storage and maintained at cryogenic temperatures until thawing. The cells were thawed as quickly as possible, in a 37° C. water bath under gentle shaking. The vials were kept in the water bath until all ice crystals have dissolved and are no longer visible. After the thawing was completed, the vials were sprayed with 70% ethanol and transferred to a biosafety cabinet. […]
Cells were then counted with Cellometer® Vision. […] Counted cells were then diluted with incubation medium to a working cell density of 1.0×10^6 viable cells/mL. […]
All calculations were carried out using Microsoft Excel. Peak areas were determined from extracted ion chromatograms. in vitro half-life (t½) of parent compound was determined by regression analysis of the Ln percent parent disappearance vs. time curve.

Row | hepatocyte CLint at 1 µM | Compound
1 | 3.8 µL/min/1e6 cells | C[C@@H]1CC(F)(F)CN(C(=O)c2nn(C)cc2-c2ccc(Cl)cc2)[C@@H]1CNc1cnc(C(F)(F)F)cn1 [Compound 129, (4-(4-chlorophenyl)-1-methyl-1H-pyrazol-3-yl)((2S,3R)-5,5-difluoro-3-methyl-2-(((5-(trifluoromethyl)pyrazin-2-yl)amino)methyl)piperidin-1-yl)methanone]
2 | 107 µL/min/1e6 cells | Cc1nc(C(=O)N2CC(F)(F)C[C@@H](C)[C@H]2CNc2ccc(C(F)(F)F)cn2)c(-c2ccc(F)cc2)s1 [Compound 185, ((2S,3R)-5,5-difluoro-3-methyl-2-(((5-(trifluoromethyl)pyridin-2-yl)amino)methyl)piperidin-1-yl)(5-(4-fluorophenyl)-2-methylthiazol-4-yl)methanone]
